Here are results for 24 molecules from ChEMBL document CHEMBL1147684, “Nitrogen-bridged substituted 8-arylquinolines as potent PDE IV inhibitors” (Bioorg Med Chem Lett, 2006).

One may read the IC50 as the concentration that inhibits the measured activity by half. The inhibition in vivo is the share of the control response that was lost under treatment. As usually defined, the Cmax is the highest concentration seen after dosing. As usually defined, the bioavailability is dose-corrected exposure relative to a reference, in per cent. As a reminder, the half-life is the time needed for the level to fall by half in the phase considered.

Data set [1] concerns the target 3',5'-cyclic-AMP phosphodiesterase 4A (Homo sapiens, UniProt P27815). The experiment in a line: Inhibition of human GST-PDE4A.
Data set [2] concerns the target T1, 3',5'-cyclic-AMP phosphodiesterase 4B (Homo sapiens, UniProt Q07343). Put plainly: Inhibition of human GST-PDE4B.
In data set [3] the target is T1, 3',5'-cyclic-AMP phosphodiesterase 4B. Put plainly: Ability to block TNFalpha release through inhibition of PDE4 in LPS-stimulated human whole blood. It is filed as functional, tissue-based.
Data set [4] has as its target 3',5'-cyclic-AMP phosphodiesterase 4D (Homo sapiens, UniProt Q08499). The experiment in a line: Inhibition of human GST-PDE4D.
Data set [5] has as its target 3',5'-cyclic-AMP phosphodiesterase 4C (Homo sapiens, UniProt Q08493). The experiment in a line: Inhibition of human GST-PDE4C.
The test system of data set [6] is Cavia porcellus. The experiment in a line: Inhibition of ovalbumin-induced bronchoconstriction in guinea pig at 1 mg/kg, ip. Type of data set: functional. The conditions noted are these: route intraperitoneal.
Data set [7] is described as follows: Cmax in rat. It is filed as ADME, organism-based. The conditions noted are these: in vivo.
Data set [8] can be described thus: Oral bioavailability in rat. Type of data set: ADME, organism-based. The conditions noted are these: in vivo.
The subject of data set [9] is Cavia porcellus. The experiment in a line: Inhibition of ovalbumin-induced bronchoconstriction in guinea pig at 30 ug/kg, ip. Type of data set: functional.
Data set [10] is described as follows: Cmax in squirrel monkey. The note with it: in vivo. Type of data set: ADME, organism-based, Saimiri sciureus.
A short description of data set [11]: Oral bioavailability in squirrel monkey. Type of data set: ADME, organism-based, Saimiri sciureus. The note with it: in vivo.
Data set [12] in a line: Half life in iv dosed squirrel monkey. The note with it: in vivo. Type of data set: ADME, organism-based, Saimiri sciureus.
Data set [13] in a line: Half life in iv dosed rat. The conditions noted are these: in vivo. It is filed as ADME, organism-based.

T1 sequence (Q07343 whole entry): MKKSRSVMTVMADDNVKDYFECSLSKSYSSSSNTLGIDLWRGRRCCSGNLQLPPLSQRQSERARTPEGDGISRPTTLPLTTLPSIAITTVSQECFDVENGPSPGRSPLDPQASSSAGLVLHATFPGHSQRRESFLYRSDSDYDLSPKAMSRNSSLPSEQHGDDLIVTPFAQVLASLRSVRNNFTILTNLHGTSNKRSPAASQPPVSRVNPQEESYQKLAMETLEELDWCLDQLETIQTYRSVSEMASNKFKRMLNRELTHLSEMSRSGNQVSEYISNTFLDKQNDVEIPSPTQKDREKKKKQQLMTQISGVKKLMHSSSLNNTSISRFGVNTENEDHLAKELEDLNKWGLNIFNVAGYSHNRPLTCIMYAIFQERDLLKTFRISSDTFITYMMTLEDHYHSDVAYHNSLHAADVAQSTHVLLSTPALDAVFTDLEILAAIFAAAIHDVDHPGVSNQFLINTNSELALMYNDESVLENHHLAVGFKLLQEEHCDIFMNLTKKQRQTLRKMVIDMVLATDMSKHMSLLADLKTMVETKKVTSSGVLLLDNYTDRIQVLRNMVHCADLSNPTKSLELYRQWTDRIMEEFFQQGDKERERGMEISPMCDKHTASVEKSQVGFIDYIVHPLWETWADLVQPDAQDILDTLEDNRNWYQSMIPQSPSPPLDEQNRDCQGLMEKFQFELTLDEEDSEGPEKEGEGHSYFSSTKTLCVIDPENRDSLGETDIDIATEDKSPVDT
Chain of 3',5'-cyclic-AMP phosphodiesterase 4D (Q08499 whole entry): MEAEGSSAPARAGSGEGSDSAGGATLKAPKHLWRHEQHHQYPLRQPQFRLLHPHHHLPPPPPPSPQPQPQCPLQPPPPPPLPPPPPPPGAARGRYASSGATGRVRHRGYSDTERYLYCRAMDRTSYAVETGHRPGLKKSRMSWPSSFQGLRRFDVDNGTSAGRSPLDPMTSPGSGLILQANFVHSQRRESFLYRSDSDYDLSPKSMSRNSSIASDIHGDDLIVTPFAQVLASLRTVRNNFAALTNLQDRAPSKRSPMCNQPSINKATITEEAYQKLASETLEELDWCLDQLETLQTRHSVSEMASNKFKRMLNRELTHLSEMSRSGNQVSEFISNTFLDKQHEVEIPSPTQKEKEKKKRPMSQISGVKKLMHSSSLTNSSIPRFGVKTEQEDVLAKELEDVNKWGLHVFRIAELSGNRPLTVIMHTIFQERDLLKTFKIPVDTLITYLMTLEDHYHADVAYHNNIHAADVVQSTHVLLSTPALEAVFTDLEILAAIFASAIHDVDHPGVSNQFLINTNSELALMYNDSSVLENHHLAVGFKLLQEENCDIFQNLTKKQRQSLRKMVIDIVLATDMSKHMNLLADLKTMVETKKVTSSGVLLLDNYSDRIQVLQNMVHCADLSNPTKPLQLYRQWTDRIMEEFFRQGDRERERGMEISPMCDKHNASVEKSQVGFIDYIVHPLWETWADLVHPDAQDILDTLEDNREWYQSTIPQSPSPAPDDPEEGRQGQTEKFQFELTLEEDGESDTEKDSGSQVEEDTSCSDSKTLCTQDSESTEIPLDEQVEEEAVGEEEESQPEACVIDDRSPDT
Chain of 3',5'-cyclic-AMP phosphodiesterase 4C (Q08493 whole entry): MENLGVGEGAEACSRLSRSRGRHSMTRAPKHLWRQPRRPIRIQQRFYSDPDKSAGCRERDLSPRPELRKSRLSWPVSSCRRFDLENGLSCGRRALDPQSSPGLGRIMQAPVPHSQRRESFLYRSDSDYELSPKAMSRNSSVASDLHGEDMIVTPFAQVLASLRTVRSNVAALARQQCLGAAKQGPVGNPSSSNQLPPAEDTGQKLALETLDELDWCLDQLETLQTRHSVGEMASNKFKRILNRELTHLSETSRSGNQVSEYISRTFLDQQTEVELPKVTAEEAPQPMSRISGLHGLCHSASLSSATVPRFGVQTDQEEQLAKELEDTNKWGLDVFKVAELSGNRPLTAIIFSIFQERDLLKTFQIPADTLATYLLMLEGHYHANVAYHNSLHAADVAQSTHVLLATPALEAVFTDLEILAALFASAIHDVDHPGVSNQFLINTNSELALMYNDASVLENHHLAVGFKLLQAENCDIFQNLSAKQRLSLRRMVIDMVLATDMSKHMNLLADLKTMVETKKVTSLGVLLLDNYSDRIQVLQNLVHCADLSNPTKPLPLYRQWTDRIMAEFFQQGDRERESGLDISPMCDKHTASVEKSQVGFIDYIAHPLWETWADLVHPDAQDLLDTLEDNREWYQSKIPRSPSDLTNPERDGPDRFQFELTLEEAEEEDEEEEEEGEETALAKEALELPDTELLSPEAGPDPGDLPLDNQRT
Chain of 3',5'-cyclic-AMP phosphodiesterase 4A (P27815 whole entry): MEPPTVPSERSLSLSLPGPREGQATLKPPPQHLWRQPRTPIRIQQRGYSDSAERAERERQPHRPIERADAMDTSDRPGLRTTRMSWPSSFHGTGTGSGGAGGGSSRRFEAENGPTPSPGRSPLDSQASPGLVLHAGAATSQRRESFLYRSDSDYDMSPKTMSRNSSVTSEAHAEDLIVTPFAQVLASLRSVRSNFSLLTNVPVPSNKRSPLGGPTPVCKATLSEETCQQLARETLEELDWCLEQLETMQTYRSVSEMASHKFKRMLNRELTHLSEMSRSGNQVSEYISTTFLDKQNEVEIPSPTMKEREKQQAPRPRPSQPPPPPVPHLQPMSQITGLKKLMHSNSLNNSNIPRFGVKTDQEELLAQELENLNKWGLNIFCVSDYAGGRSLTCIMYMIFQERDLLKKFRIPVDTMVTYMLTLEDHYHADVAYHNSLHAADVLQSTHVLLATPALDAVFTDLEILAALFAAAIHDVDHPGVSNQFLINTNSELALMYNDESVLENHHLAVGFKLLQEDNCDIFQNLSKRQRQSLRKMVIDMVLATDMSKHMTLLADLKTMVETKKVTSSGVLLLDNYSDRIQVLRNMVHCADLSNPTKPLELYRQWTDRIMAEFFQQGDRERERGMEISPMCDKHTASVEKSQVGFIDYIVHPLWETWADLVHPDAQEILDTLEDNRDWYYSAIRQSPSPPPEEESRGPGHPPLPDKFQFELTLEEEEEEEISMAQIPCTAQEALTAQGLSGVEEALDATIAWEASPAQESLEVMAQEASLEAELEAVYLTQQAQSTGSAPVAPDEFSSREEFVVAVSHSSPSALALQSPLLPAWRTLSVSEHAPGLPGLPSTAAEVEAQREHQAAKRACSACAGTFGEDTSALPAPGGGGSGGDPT

Turning to `CC(C)(c1cc(-c2cccc(NC(=O)c3ccc(S(C)(=O)=O)cc3)c2)c2ncccc2c1)S(C)(=O)=O`, the IC50 in data set [1] was 1.7 nM; in data set [2], 1.2 nM; in data set [3], 1000 nM; in [4], 2.3 nM; in [5] it was 10.6 nM.
As to `CC(C)(c1cc(-c2cccc(C(N)=O)c2)c2ncccc2c1)S(C)(=O)=O`, the half-inhibitory concentration (IC50) in data set [1] was 78 nM; in data set [2], 40 nM; in data set [4], 74 nM; in [5], 490 nM.
`CC(C)(c1cc(-c2cccc(C(=O)Nc3ccccc3)c2)c2ncccc2c1)S(C)(=O)=O`: the IC50 worked out at 16 nM in data set [1]; 5.9 nM in data set [2]; 7000 nM in data set [3]; 10 nM in data set [4]; 97 nM in [5].
As for `CC(c1cccc(-c2cc(C(C)(C)S(C)(=O)=O)cc3cccnc23)c1)N(C(=O)C1CC1)c1ccc(S(C)(=O)=O)cc1` (configuration not stated), the IC50 in data set [1] was found to be 1.6 nM; in [2], 0.6 nM; in [3], 800 nM; in [4], 1.4 nM; in data set [5], 17 nM.
Regarding `CC(C)NC(=O)N(Cc1cc(-c2cc(C(C)(C)S(C)(=O)=O)cc3cccnc23)ccc1Cl)c1ccc(S(C)(=O)=O)cc1`, the IC50 in [1] is 15 nM; in data set [2] it was 4.4 nM; in data set [3], 4000 nM; in data set [4], 10 nM; in data set [5], 70 nM.
With `CC(C)(C#N)c1cc(-c2cccc(CN(C(=O)c3ccccc3)c3ccc(S(C)(=O)=O)cc3)c2)c2ncccc2c1`, the IC50 in data set [1] was 0.2 nM; in [2], 0.1 nM; in data set [3] it was 80 nM; in data set [4], 0.3 nM; in [5] it was 1 nM.
`CC(c1cccc(-c2cc(C(C)(C)S(C)(=O)=O)cc3cccnc23)c1)N(C(=O)c1ccc(F)cc1)c1ccc(S(C)(=O)=O)cc1` (single isomer, unassigned; enantiomer B): the IC50 amounted to 1.8 nM in data set [1]; 0.5 nM in data set [2]; 250 nM in data set [3]; 0.7 nM in [4]; 7.5 nM in [5].
For `CC(=O)N(c1ccc(S(C)(=O)=O)cc1)C(C)c1cccc(-c2cc(C(C)(C)S(C)(=O)=O)cc3cccnc23)c1` (configuration not stated) the same measures were 10 nM, 4.2 nM, 2000 nM, 6.7 nM and 41 nM.
Turning to `CC(C)OC(=O)N(Cc1cccc(-c2cc(C(C)(C)C#N)cc3cccnc23)c1)c1ccc(S(C)(=O)=O)cc1`, the IC50 was 0.3 nM in data set [1]; 0.3 nM in [2]; 80 nM in data set [3]; 0.3 nM in data set [4]; 4.2 nM in [5].
`CC(C)(c1cc(-c2cccc(C(=O)Nc3ccc(S(C)(=O)=O)cc3)c2)c2ncccc2c1)S(C)(=O)=O`: the IC50 in data set [1] came out at 3.5 nM; in data set [2], 0.5 nM; in data set [3], 140 nM; in [4] it was 2.8 nM; in [5], 26 nM.
`CC(C)(C#N)c1cc(-c2cccc(CN(Cc3ccc(F)cc3)c3ccc(S(C)(=O)=O)cc3)c2)c2ncccc2c1`: the IC50 came out at 1 nM in data set [1]; 0.1 nM in data set [2]; 1800 nM in data set [3]; 0.5 nM in data set [4]; 9.5 nM in data set [5].
As for `CC(C)(c1cc(-c2cccc(C(=O)Nc3c(Cl)cncc3Cl)c2)c2ncccc2c1)S(C)(=O)=O`, the concentration for half-maximal inhibition (IC50) was 0.6 nM in [1]; 0.4 nM in [2]; 90 nM in data set [3]; 0.7 nM in data set [4]; 5.5 nM in [5].
In the case of `CC(C)NC(=O)N(Cc1cc(-c2cc(C(C)(C)S(C)(=O)=O)cc3cccnc23)ccc1F)c1ccc(S(C)(=O)=O)cc1`, the concentration for half-maximal inhibition (IC50) in data set [1] was found to be 0.6 nM; in data set [2] it was 0.3 nM; in data set [3] it was 50 nM; in data set [4], 0.8 nM; in data set [5] it was 6.4 nM.
For `Cc1cc(C(=O)N(Cc2cccc(-c3cc(C(C)(C)C#N)cc4cccnc34)c2)c2ccc(S(C)(=O)=O)cc2)no1` the same measures were 0.3 nM, 0.1 nM, 30 nM, 0.1 nM and 0.9 nM.
Regarding `CC(C)(C#N)c1cc(-c2cccc(CN(C(=O)Nc3ccccc3)c3ccc(S(C)(=O)=O)cc3)c2)c2ncccc2c1`, the IC50 in data set [1] is 0.1 nM; in data set [2] it was 0.03 nM; in data set [3], 40 nM; in [4], 0.1 nM; in data set [5] it was 0.05 nM.
`COc1ccc([C@H](Cc2ccncc2)c2ccccc2)cc1OC1CCCC1` [CDP840] yielded an inhibition in vivo at 1 mg/kg in the data set with Cavia porcellus [6] of 55%.
In the case of `CC(c1cccc(-c2cc(C(C)(C)S(C)(=O)=O)cc3cccnc23)c1)N(C(=O)c1ccc(F)cc1)c1ccc(S(C)(=O)=O)cc1` (racemic), the Cmax in data set [7] was determined as 2700 nM; in [10], 900 nM. Also, the values for the bioavailability in data set [8] and in data set [11] were 67% and 98%, respectively. In the data set on Cavia porcellus [9], this molecule yielded an inhibition in vivo at 0.03 mg/kg of 74%. In addition, the IC50 in data set [1] is 2.3 nM; in [2], 0.6 nM; in data set [3] it was 560 nM; in [4], 1.8 nM; in data set [5], 12 nM. Besides, the half-life in data set [12] is 7 h; in data set [13], 2 h.
Turning to `CC(C)(c1cc(-c2cccc(C(=O)Nc3ccncc3)c2)c2ncccc2c1)S(C)(=O)=O`, the IC50 in data set [1] stood at 3.1 nM; in data set [2], 0.9 nM; in data set [3], 200 nM; in [4], 3 nM; in data set [5] it was 17 nM.
As for `CC(C)NC(=O)N(Cc1cccc(-c2cc(C(C)(C)S(C)(=O)=O)cc3cccnc23)c1)c1ccc(S(C)(=O)=O)cc1`, the IC50 in [1] stood at 0.1 nM; in data set [2], 0.1 nM; in data set [3], 100 nM; in data set [4], 0.1 nM; in data set [5] it was 1.7 nM.
Consider `CC(C)NC(=O)N(Cc1cccc(-c2cc(C(C)(C)C#N)cc3cccnc23)c1)c1ccc(S(C)(=O)=O)cc1`, for which the half-maximal inhibitory concentration (IC50) in [1] was 0.1 nM; in data set [2] it was 0.1 nM; in data set [3], 140 nM; in data set [4], 0.1 nM; in [5], 1.7 nM.
`CC(c1cccc(-c2cc(C(C)(C)S(C)(=O)=O)cc3cccnc23)c1)N(C(=O)c1cccnc1)c1ccc(S(C)(=O)=O)cc1` (configuration not stated): the half-inhibitory concentration (IC50) was 2.1 nM in data set [1]; 0.7 nM in data set [2]; 210 nM in [3]; 1.7 nM in data set [4]; 14 nM in data set [5].
On to `CC(c1cccc(-c2cc(C(C)(C)S(C)(=O)=O)cc3cccnc23)c1)N(C(=O)c1ccc(C(C)(C)O)cc1)c1ccc(S(C)(=O)=O)cc1` (configuration not stated), for which the IC50 is 1.5 nM in data set [1]; 0.4 nM in data set [2]; 270 nM in data set [3]; 0.5 nM in [4]; 5.9 nM in [5].
In the same order, the values of `CC(C)NC(=O)N(c1ccc(S(C)(=O)=O)cc1)C(C)c1cccc(-c2cc(C(C)(C)S(C)(=O)=O)cc3cccnc23)c1` (configuration not stated) are 1.8 nM, 0.7 nM, 400 nM, 1.9 nM and 25 nM.
Turning to `CC(c1cccc(-c2cc(C(C)(C)S(C)(=O)=O)cc3cccnc23)c1)N(C(=O)c1ccc(F)cc1)c1ccc(S(C)(=O)=O)cc1` (single isomer, unassigned; enantiomer A), the IC50 in [1] is 15 nM; in data set [2] it was 5.8 nM; in data set [3], 1400 nM; in data set [4], 7 nM; in data set [5] it was 51 nM.
